{"source": "patent US9243037B2", "about": "“Gramicidin a mutants that function as antibiotics with improved solubility and reduced toxicity” (Trustees of Boston College, priority 2011, dated 2016)", "key": {"FIG. 2": {"test": "FIG. 2", "experimental": "Table printed on a drawing sheet, FIG. 2\nWater solubility of gA variants is determined by Trp absorbance at 280 nm and summarized in the inserted table. Buffer used: 10 mM HEPES containing 1% DMSO. The solubility of gA-WT was obtained from reference.\nFirst reader's note: Saturation concentration (water solubility); the gA-WT cell carries its own unit (nM), and the marker [a] is not explained on the sheet."}, "[1]": {"tested_on": "Bacillus subtilis (ATCC 663)"}, "physchem": {"test": "physchem", "type": "physicochemical", "experimental": "Peptide solubility in 10 mM HEPES buffer with 1% DMSO was measured by monitoring tryptophan absorbance. A concentrated (6.0-8.0 mM) peptide stock solution in DMSO was diluted 100 times (5 μL of the stock into 500 jtl of 10 mM HEPES buffer, pH 7.0). The mixture was sonicated for 30 mins and then subject to centrifugation (14,000 rpm, 10 mins) to remove possible precipitate. The supernatant (400 μL) was transferred to a quartz cuvette and the peptide concentration was determined by tryptophan absorbance at 280 nm (ε=22760 M−1 cm-1). The UV/Vis spectra of the supernatant can be seen in FIG. 1 and FIG. 5."}, "[2]": {"tested_on": "Staphylococcus aureus (ATCC 6538)"}, "[3]": {"tested_on": "human red blood cells (hRBCs)", "test": "Haemoglobin release from human red blood cells", "type": "cell-based", "experimental": "Fresh human red blood cells (hRBCs) were centrifuged at 3500 rpm and washed with PBS buffer until the supernatant was clear. The hRBCs were then resuspended and diluted to a final concentration of 1% (v/v) in PBS and used immediately. 15 μL of serial dilution (2-fold) of peptides in DMSO or DMSO alone as a negative control were added to 1.5 mL of hRBCs in PBS. The resulting mixture was gently shaken to mix well and incubated at 37° C. for 1 hr, followed by centrifugation at 3500 rpm for 10 min using tabletop centrifuge. Aliquots (50 μL) of the supernatant (in triplicates) were transferred into a sterile 96-well plate containing 50 μL of H2O in each well. Release of hemoglobin was monitored at 415 nm using a microtiter plate reader. Percentage hemolysis was calculated using percentage hemolysis=100·(A415, peptide-A415,DMSO)/(A415, complete hemolysis-A415, DMSO), where complete hemolysis is achieved by mixing hRBCs with 1% TritonX-100."}, "[4]": {"tested_on": "Streptococcus pyogenes (ATCC 19615)"}, "bacteria": {"tested_on": "bacteria", "test": "Antibacterial activity, strain not singled out", "conditions": "in words", "procedure": "Minimal Inhibitory Concentrations (MICs) were measured against Gram-negative Escherichia coli (BL21) and Gram-positive Bacillus subtilis (ATCC 663), Staphylococcus aureus (ATCC 6538), Streptococcus pyogenes (ATCC 19615) using the broth microdilution method.[2] Specifically, bacteria from a single colony were grown overnight in LB broth at 37° C. with agitation. An aliquot was taken and diluted (1:50 for E. coli, 1:20 for B. subtilis, 1:200 for S. aureus, 1: 10 for S. pyogenes) in fresh broth and cultured for another ˜3 hours until the cells reach mid-logarithmic phase (OD590-0.6). The cells were diluted to a concentration of ˜5×10^5 Colony Forming Units/ml (CFU/ml) and the bacteria suspension (200 μL) was added to each well of a sterile 96-well plate. Serial diluted (2-fold) peptides in DMSO (2 μL) were added in triplicates. The plates were shaken for 30 seconds to mix the peptide solution well with the broth, and then incubated at 37° C. overnight before the absorbance at 590 nm was monitored using a microtiter plate reader (SPECTRAMAX M5, Molecular Devices, Sunnyvale, Calif.). The viability of the bacteria was normalized as % survival=(ODpep,bac−ODbroth only)/(ODDMSO, bac-ODbroth only)×100%."}}, "note": "Marks after values point to notes of the source that are not given here."}
{"compound": "CC(C)C[C@@H](NC(=O)[C@H](C)NC(=O)CNC(=O)[C@@H](NC=O)C(C)C)C(=O)N[C@@H](C)C(=O)N[C@@H](C(=O)N[C@H](C(=O)N[C@@H](C(=O)N[C@@H](Cc1c[nH]c2ccccc12)C(=O)N[C@H](CCCNC(=N)N)C(=O)N[C@@H](Cc1c[nH]c2ccccc12)C(=O)N[C@H](CCCNC(=N)N)C(=O)N[C@@H](Cc1c[nH]c2ccccc12)C(=O)N[C@H](CCCNC(=N)N)C(=O)N[C@@H](Cc1c[nH]c2ccccc12)C(=O)NCCO)C(C)C)C(C)C)C(C)C", "note": "(racemic) [gA-6, formyl-V-G-A-dL-A-dV-V-dV-W-dR-W-dR-W-dR-W-NHCH2CH2OH]", "values": [{"measurement": "SAT. CONC/μM", "setting": "FIG. 2", "value": 43, "unit": "µM"}, {"measurement": "MICs B. Subtilius", "setting": "[1]; ATCC 663", "value": "2.5~5 μM"}, {"measurement": "MIC relative to wild-type Gramicidin A", "setting": "[1]; B. subtilis", "value": "equivalent to or ˜2-fold higher"}, {"measurement": "water solubility, fold higher than wild-type Gramicidin A", "setting": "physchem", "value": "~800", "unit": "fold"}, {"measurement": "MIC relative to wild-type Gramicidin A", "setting": "[2]; S. Aureus", "value": "much higher MIC"}, {"measurement": "MICs S. Aureus", "setting": "[2]; Table 2, standard micro-dilution", "value": ">10 ^[e] μM"}, {"measurement": "HC50 (50% haemoglobin leakage relative to 1% TritonX-100)", "setting": "[3]", "value": 20, "unit": "µM"}, {"measurement": "MICs S. Pyogenes", "setting": "[4]; ATCC 19615", "value": 1.25, "unit": "µM"}, {"measurement": "MIC relative to wild-type Gramicidin A", "setting": "[4]; S. Pyogenes", "value": "equivalent to or ˜2-fold higher"}, {"measurement": "antibacterial activity / MIC", "setting": "bacteria", "value": "low μM potency"}]}
